Measured values as given in ChEMBL document CHEMBL2396595, “New eudesmane sesquiterpenes from Alpinia oxyphylla and determination of their inhibitory effects on microglia” (Bioorg Med Chem Lett, 2013).
Active and inactive are the calls of the source. No cut-off for these calls is given here.

Assays:
[1] = Cytotoxicity against mouse BV2 cells assessed as maximum non-toxic concentration after 24 hrs by MTT assay; type: cell-based, BV-2
BV-2 [2] = test: Neuroprotective activity in mouse BV2 cells assessed as increase of LPS-induced TNFalpha production at maximum non-toxic concentration treated 1 hr before LPS addition measured after 24 hrs by ELISA; type: functional, cell-based
BV-2 [3] = test: Neuroprotective activity in mouse BV2 cells assessed as inhibition of LPS-induced nitric oxide production at maximum non-toxic concentration treated 1 hr before LPS addition measured after 24 hrs by colorimetric analysis; type: functional, cell-based
BV-2 [4] = test: Neuroprotective activity in mouse BV2 cells assessed as increase of LPS-induced nitric oxide production at maximum non-toxic concentration treated 1 hr before LPS addition measured after 24 hrs by colorimetric analysis; type: functional, cell-based
BV-2 [5] = test: Neuroprotective activity in mouse BV2 cells assessed as inhibition of LPS-induced TNFalpha production at maximum non-toxic concentration treated 1 hr before LPS addition measured after 24 hrs by ELISA; type: functional, cell-based

Compound | MNTC at 24 h [1] [µM] | Activity (BV-2 [2]) | inhibition (BV-2 [3]) | Activity (BV-2 [4]) | inhibition (BV-2 [5])
COc1ccc2c(c1)c(CC(=O)O)c(C)n2C(=O)c1ccc(Cl)cc1 [INDOMETHACIN] | 10 |  |  |  | 
C=C(C)[C@]1(O)CC[C@]2(C)CC(=O)C=C(C)[C@H]2C1 | 0.1 | Active | inactive |  | 
CC(=O)[C@H]1CC[C@@]2(C)CC(=O)C=C(C)[C@@]2(O)C1 | 100 |  | inactive | Active | 
C=C(C)[C@@H]1CC(=O)C2=CC(=O)C[C@@H](C)[C@]2(C)C1 | 0.1 | Active | Active |  | 
C[C@@]12CCC(=O)C=C1[C@@](C)(O)[C@H](O)CC2 [OXYPHYLLENONE A] | 100 |  | inactive |  | Active
C[C@@]12CCC(=O)C=C1[C@](C)(O)[C@H](O)CC2 [OXYPHYLLENONE B] | 10 |  | inactive |  | 
Cc1ccc2c(c1O)[C@H](C(C)C)CCC2=O | 100 |  | Active |  | 
CC1=CC(=O)C[C@@]2(C)C[C@H]3OC(=O)C(C)=C3C[C@H]12 | 100 |  | inactive | Active | 
CC(C)[C@@H]1CCC(=O)C2=C1[C@H](O)[C@](C)(O)CC2 [OXYPHYLLENODIOL A] | 100 |  | inactive |  | 
CC(C)[C@H]1CCC(=O)C2=C1[C@H](O)[C@](C)(O)CC2 [OXYPHYLLENODIOL B] | 1 |  | Active |  | 
CC(=O)C1=CC2=C(C)C(=O)CC[C@@]2(C)CC1 | 100 |  | inactive | Active | 
N=C(N)NN [PIMAGEDINE] | 1000 |  |  |  | 
Cc1ccc2c(c1)[C@H](C(C)C)CCC2=O [(4S)-10-NOR-CALAMENEN-10-ONE] | 0.1 |  | inactive | Active | 
C=C(C)[C@@H]1CCC2=CC(=O)C[C@@H](C)[C@]2(C)C1 [NOOTKATONE] | 0.1 | Active | inactive |  | 
CC1=C2C=C(C(C)(O)CO)CC[C@]2(C)CCC1=O (stereo not given in full) [OXYPHYLLANENE F] | 0.1 |  | inactive |  | 
C[C@@H]1CC(=O)C=C2CC[C@@H]([C@](C)(O)CO)C[C@]21C [(11S)-NOOTKATONE-11,12-DIOL] | 30 |  | inactive |  | 
C=C(C)[C@@H]1CCC2=C[C@@H](O)C[C@@H](C)[C@]2(C)C1 [BETA-NOOTKATOL] | 30 |  | Active |  | 
